Assay [1] has as its target T1, Diacylglycerol O-acyltransferase 1 (Mus musculus, UniProt Q9Z2A7).
T1 sequence (Q9Z2A7 whole entry): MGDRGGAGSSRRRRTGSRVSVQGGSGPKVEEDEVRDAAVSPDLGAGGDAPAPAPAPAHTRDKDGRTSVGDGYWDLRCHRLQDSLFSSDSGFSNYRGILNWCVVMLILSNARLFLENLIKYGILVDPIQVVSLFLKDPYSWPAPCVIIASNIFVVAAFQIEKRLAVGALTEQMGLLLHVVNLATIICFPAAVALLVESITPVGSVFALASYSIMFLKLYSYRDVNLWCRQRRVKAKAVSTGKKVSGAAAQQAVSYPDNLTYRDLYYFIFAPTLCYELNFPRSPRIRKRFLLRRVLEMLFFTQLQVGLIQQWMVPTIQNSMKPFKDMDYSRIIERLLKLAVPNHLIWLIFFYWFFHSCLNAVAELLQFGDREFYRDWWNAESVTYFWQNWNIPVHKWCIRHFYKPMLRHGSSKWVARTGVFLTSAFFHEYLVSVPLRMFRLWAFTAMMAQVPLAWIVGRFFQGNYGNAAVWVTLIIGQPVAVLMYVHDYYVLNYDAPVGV
The experiment in a line: Inhibition of mouse recombinant DGAT1 expressed in Sf9 cells.

The target of assay [2] is T2, Diacylglycerol O-acyltransferase 1 (Homo sapiens, UniProt O75907).
T2 sequence (O75907 whole entry): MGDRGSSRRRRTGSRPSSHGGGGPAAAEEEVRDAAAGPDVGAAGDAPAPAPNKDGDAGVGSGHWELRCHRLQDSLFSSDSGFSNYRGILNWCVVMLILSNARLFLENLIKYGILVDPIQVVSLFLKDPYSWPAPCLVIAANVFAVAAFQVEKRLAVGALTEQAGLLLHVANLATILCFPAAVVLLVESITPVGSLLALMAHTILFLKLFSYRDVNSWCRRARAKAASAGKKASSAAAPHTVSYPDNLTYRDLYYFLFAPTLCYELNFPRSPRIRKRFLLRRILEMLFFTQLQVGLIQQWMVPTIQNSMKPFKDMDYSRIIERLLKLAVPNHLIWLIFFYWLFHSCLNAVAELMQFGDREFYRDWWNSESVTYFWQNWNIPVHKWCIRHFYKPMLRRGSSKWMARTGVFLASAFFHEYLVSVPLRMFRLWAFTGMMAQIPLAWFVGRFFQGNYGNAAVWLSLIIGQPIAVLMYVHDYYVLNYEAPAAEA
Nature of the assay: Inhibition of human recombinant DGAT1 expressed in Sf9 cells.

pIC50: −log10 of the molar value.

For orientation: pIC50 means the negative decadic logarithm of the IC50, by convention in mol/L. For `O=C(Nc1ccc(-c2ccc(C(=O)[C@@H]3CCC[C@H]3C(=O)O)cc2)cc1)Nc1ccc2c(c1)OCO2`, in assay [1], the pIC50 is 7.20.

`O=C(Nc1ccc(-c2ccc(C(=O)[C@@H]3CCC[C@H]3C(=O)O)cc2)cc1)Nc1ccccc1C(F)(F)F`: in assay [1], the pIC50 was 7.80.

On to `N#Cc1ccc(NC(=O)Nc2ccc(-c3ccc(C(=O)[C@@H]4CCC[C@H]4C(=O)O)cc3)cc2)cc1`, for which, in assay [1], the pIC50 is 6.22.

With `O=C(Nc1ccccc1)Nc1ccc(-c2ccc(C(=O)[C@@H]3CCC[C@@H]3C(=O)O)cc2)cc1`, the pIC50 in assay [2] is 7.01.

For the compound `O=C(Nc1ccc(-c2ccc(C(=O)[C@@H]3CCC[C@H]3C(=O)O)cc2)cc1)Nc1cccc(F)c1`, the pIC50 in assay [1] is 7.41.

Turning to `O=C(O)[C@@H]1CCC[C@H]1C(=O)c1ccc(-c2ccc(Nc3nc4ccc(OC(F)(F)F)cc4s3)c(F)c2)cc1`, in assay [1], the pIC50 is 6.68.

These data come from ChEMBL document CHEMBL1140730, “Validation of diacyl glycerolacyltransferase I as a novel target for the treatment of obesity and dyslipidemia using a potent and selective small molecule inhibitor” (J Med Chem, 2008).
